How the values were obtained:
[1] = test system: Herpes simplex virus (HSV); assay: HSV standard plaque inhibition assay; assay type: cell-based; settings: for ICVT activity: HSV plaque inhibition assay
From the text: Using Herpes simplex virus (HSV), 50% plaque inhibitory dose (1D50) were established using the standard plaque inhibition assay.

[2] = test system: Herpes simplex virus (HSV); assay: HSV virus yield (infectious virus particle production); assay type: cell-based; settings: for HSV yield: solvent as listed per compound, Torasemide at 90 μg/ml

Compound | ICVT activity [1] | HSV yield [2] | other results
CC(=O)Nc1nnc(S(N)(=O)=O)s1 [Acetazolamide] | only ‘borderline’ CVI activity | – | –
CCCCNc1cc(C(=O)O)cc(S(N)(=O)=O)c1Oc1ccccc1 [Bumetanide] | – | HSV yield reduced Borderline | –
C[C@H]1O[C@@H](O[C@H]2[C@@H](O)C[C@H](O[C@H]3[C@@H](O)C[C@H](O[C@H]4CC[C@@]5(C)[C@H](CC[C@@H]6[C@@H]5CC[C@]5(C)[C@@H](C7=CC(=O)OC7)CC[C@]65O)C4)O[C@@H]3C)O[C@@H]2C)C[C@H](O)[C@@H]1O [Digitoxin] | potent ICVT activity | HSV yield reduced | ID50 ([1]; Digoxin, Digitoxin from powder 250 μg per ml in 70% ethanol, IV Lanoxin in 10% ethanol, virus not named at this place): 30 ng per ml; comparative ‘ICVT-ivities’ ([1]; saturated solutions in 90% ethanol compared with Lanoxin, virus not named at this place): more effective than Digoxin
NS(=O)(=O)c1cc2c(cc1Cl)NCNS2(=O)=O [Hydrochiorothiazide, Hydrochlorothiazide] | only ‘borderline’ CVI activity | – | HSV yield reduced to zero at ([2]; Solvent: NaOH 1% aqueous): HSV yield reduced to zero at 600 ug/ml
C[C@@H]1O[C@@H](O[C@H]2C[C@@H](O)[C@]3(CO)[C@H]4[C@H](O)C[C@]5(C)[C@@H](C6=CC(=O)OC6)CC[C@]5(O)[C@@H]4CC[C@]3(O)C2)[C@H](O)[C@H](O)[C@H]1O [Strophanthin G] | – | HSV yield reduced Borderline | –
CCCCNC(=O)NS(=O)(=O)c1ccc(C)cc1 [Tolbutamide] | only ‘borderline’ CVI activity | – | HSV yield reduced to zero ([2]; Solvent: PEG): HSV yield reduced to zero 300 μg/ml; HSV yield reduced to zero ([2]; Solvent: PG): HSV yield reduced to zero 300 μg/ml
Cc1cccc(Nc2ccncc2S(=O)(=O)NC(=O)NC(C)C)c1 [Torasemide] | – | HSV yield unaffected at 90 μg/ml | –

From patent publication US20080220066A1 (HENDERSON MORLEY PLC, priority 2005, published 2008)
